According to patent US6944493B2 (priority 1999, dated 2005):

Columns and labels:
[1] = Viscosity evaluation; assay type: physicochemical; details: ICG 50 mg/ml to 75 mg/ml, WFI as the lone diluent

| Structure (SMILES) | consistency of composition [1] | solubility in WFI versus inventive diluent (lyophilized (amorphous) material) | solubility in WFI (non-lyophilized, crystalline material) |
| --- | --- | --- | --- |
| CC1(C)C(/C=C/C=C/C=C/C=C2\N(CCCCS(=O)(=O)O)c3ccc4ccccc4c3C2(C)C)=[N+](CCCCS(=O)(=O)[O-])c2ccc3ccccc3c21 [ICG, Indocyanine green] | paste-like consistency | comparable up to 25 mg/ml, wherein the inventive diluent is superior at concentrations above that level | – |
| CC1(C)C(/C=C/C=C/C=C/C=C2\N(CCCCS(=O)(=O)O)c3ccc4ccccc4c3C2(C)C)=[N+](CCCCS(=O)(=O)[O-])c2ccc3ccccc3c21 [crystalline ICG, Indocyanine green] | – | – | low solubility in WFI |
